What was measured:
[1] = test system: POLQ overexpressing (Q1, Q2, Q3) and isogenic control (CTL2, CTL5) cells; assay: Clonogenic assay, sensitivity to alkylating agents; assay type: cell-based, human; conditions: POLQ over-expressing clones vs isogenic controls; MMS 1 h at 37° C., MNU continuous
Procedure: FIG. 9. Sensitivity to alkylating agents. Drug sensitivity was determined by clonogenic assay. Sensitivity of POLQ overexpressing (Q1, Q2, Q3) and isogenic control (CTL2, CTL5) cells to methyl methanesulfonate (MMS) and N-methyl-N-nitrosourea (MNU). Survival is expressed as the relative plating efficiency of treated cells to the controls. […] Results are the mean+/−SD of at least three separate experiments performed in duplicate.
POLQ overexpression was immuno-detected as published (Seki et al. Nucleic Acids Res 31: 6117-6126, 2003), using purified protein as a size control.
Treatment was 1 h at 37° C. for methyl methanesulfonate (MMS) and continuous for N-methyl-N-nitrosourea (MNU) Immunodetection of γ-H2AX and PT68-CHK2 was carried out according to Rao et al. (Rao et al. Mol Cancer Res 5:713-24, 2007).
A proposed role of POLQ in BER could be that over-expressed POLQ interferes with the BER pathway and leads to an accumulation of endogenous DNA damage (including damage generated by reactive oxygen species). To test this hypothesis, we measured the sensitivity of the POLQ over-expressing cells to methyl-methanesulfonate (MMS) and Nitroso-N-methylurea (MNU) (FIG. 9), both of which induce DNA damage repaired by BER.

MCF7 cells = assay: Clonogenic assay, sensitivity to Chk2 inhibitor; assay type: cell-based; conditions: MCF7 compared with MDA-MB231 cells, 1 μM to 150 μM during 16 hours, seven more days
Procedure: FIG. 12. Effect of POLQ gene expression level on sensitivity to a Chk2 inhibitor. […] Survival is determined in a clonogenic assay. MCF7: squares; MDA-MB231: diamonds (B) POLQ expression is higher in MCF7 than in MDA-MB231. Gene expression levels are assayed by RT-PCR. C51 is a normal breast cell line.
MDA-MB231 and MCF7 breast cancer cells (ATCC) were grown in RPMI 1640+ glutamax medium. A 13.8 mM Chk2 inhibitor II Hydrate (Sigma RefC3742) stock solution was prepared by diluting the agent in DMSO (Sigma) and stored at −20° C. This solution was diluted in culture medium to give as indicated the final drug concentration. Cells were exposed to different concentrations ranging from 1 μM to 150 μM during 16 hours. Cells were washed with PBS buffer, fresh medium was added and cells were incubated for seven more days. Cells were fixed with NaCl 0.9% and stained with crystal violet (Sigma C3886). Clones containing more than 20 cells were counted. For the clonogenic assay 400 cells were seeded in six-well plates and incubated overnight. The POLQ expression was measured by real-time PCR as described above.
Cells overexpressing POLQ accumulate DNA damage. […] In order to test this hypothesis, the viability of the MCF7 and MDA-MB231 cells was determined in the presence of increasing amounts of a Chk2 inhibitor. […]

Row | SMILES | effect of POLQ over-expression on survival to treatment [1] | sensitivity to Chk2 inhibitor (survival in clonogenic assay) (MCF7 cells) | sensitivity to Chk2 inhibitor (survival in clonogenic assay) (MCF7 cells; listed as CHK2 inhibitor)
1 | COS(C)(=O)=O [MMS, methyl methanesulfonate] | did not significantly affect survival |  | 
2 | NC(=O)c1ccc2nc(-c3ccc(Oc4ccc(Cl)cc4)cc3)[nH]c2c1.O [Chk2 inhibitor II Hydrate] |  | higher sensitivity | hypersensitive
3 | CN(N=O)C(N)=O [MNU, N-methyl-N-nitrosourea] | did not significantly affect survival |  | 
